How the values were obtained:
[1] = test system: Akt serine-473 phosphorylation; assay: In vitro Phospho-Akt cellular assay (pAkt S473) in HEK293T/17 cells; assay type: cell-based; settings: Homo sapiens, 2 hours
Text: Activation of mTOR signaling results in phosphorylation of several downstream targets. In cells, mTOR exists in two different protein complexes. The mTOR Complex-1 (mTORC1) phosphorylates and activates S6 Kinase 1 (S6K1) and S6 Kinase 2 (S6K2) (also known as p70S6K) which then phosphorylate S6 Ribosomal Protein (S6RP) (also known as RPS6)3. S6RP is phosphorylated on serine 235, serine 236, serine 240 and serine 244 by both pS6K1 and pS6K2. The mTOR Complex-2 (mTORC2) phosphorylates AKT on serine 473 which activates the AKT signaling pathway.
The assay measures a test compound's inhibition of S6RP serine-240/244 phosphorylation and inhibition of Akt serine-473 phosphorylation in human embryonic kidney derived HEK293T/17 cells (ATCC CRL-11268).
The HEK293T/17 cell line is maintained in DMEM media (Invitrogen catalogue number 41965-039) supplemented with 10% FCS at 37° C. in a 5% CO2 humidified incubator.
Cells are seeded in 96-well plates at 40,000 cells/well (pS6RP S240/244 assay) or 80,000 cells/well (pAkt S473 assay) in 90 μl growth media (DMEM, 2% FCS). Plates are incubated for 1 hour in a humidified incubator to allow the cells to adhere. Cells are treated with 8 concentrations of test compounds or DMSO alone for controls (final DMSO concentration 0.1%) and incubated at 37° C. for 2 hours. Then 20 μl of 5× concentrated lysis buffer (750 mM NaCl, 100 mM Tris pH7.4, 5 mM ADTA, 5 mM EGTA, 5% Triton X-100) is added, plates are sealed and incubated for 15 minutes at 4° C. with gentle shaking. After cell lysis, 25 μl cell lysate is transferred to a MesoScale plate coated with an antibody to pS6RP Ser240/244 (MesoScale Discovery K150DGD-3) or an antibody to pAkt Ser 473 (MesoScale Discovery K151DGD-3). Plates have been blocked before by incubation with 150 μl MesoScale Discovery Blocking Solution-A for 1 hour at room temperature followed by washing with 150 μl 1× Tris wash buffer per well. After the transfer of the cell lysate to the MSD plate, the pS6RP (or pAkt) protein is captured on the coated antibody by incubation at room temperature for 1 hour with gentle shaking. After the capture step the plate is washed three times with 150 μl of 1× Tris wash buffer per well. Then 25 μl detection antibody conjugated with a Sulfo-Tag is added and incubated for 1 hour at room temperature with gentle shaking. Subsequently the antibody solution is removed and the plate is washed 3 times with 150 μl×Tris wash buffer per well and 150 μl Read buffer is added. The plates are analysed on a MSD 2400 Plate Reader (MesoScale Discovery). Data analysis is performed using nonlinear regression for a sigmoidal dose-response with a variable slope.

[2] = test system: cytokine levels (TNFα, IL-2, IFNγ and IL-4); assay: Anti-CD3 induced cytokine release in the mouse; assay type: in vivo; settings: 100 mg/kg p.o. 30 minutes before anti-CD3, blood 90 minutes after anti-CD3, compared to control group 2
Protocol: In this mouse model, T cells and NK cells were activated in situ by the intraperitoneal (i.p.) injection of an anti-CD3 antibody into mice that had been pre-treated for 30 minutes with certain compounds of the invention (100 mg/kg po administration). Blood samples were collected 90 minutes after anti-CD3 injection. Plasma samples were prepared and the cytokine levels (Tumor Necrosis factor alpha (TNFα), Interleukin-2 (IL-2), Interferon-gamma (IFNγ) and Interleukin-4 (IL-4)) were measured using a Cytometric Bead Array method.
A single dose of test compound was administered p.o. 30 minutes before anti-CD3 injection. 90 minutes after anti-CD3 injection blood samples were collected for cytokine analysis (approximately 400 μl whole blood anti-coagulated with Na-heparin) and stored frozen until use.
The cytokine measurement was done using the mouse Cytometric Bead Array (CBA) Th1/Th2 kit (BD Biosciences, San Diego, Calif., USA; catalogue number 551287) according to the manufacturer's instruction with the following modifications: all reagents were downscaled by a factor of 2 and the mixture of plasma, beads and detection reagents was done in 96-U-bottom plates. Standards and samples were acquired on a FACSCalibur® instrument (Becton Dickinson) using an HTS plate loader. Data were analysed with the CBA Software provided by Becton Dickinson which draws standard curves and converts mean fluorescence values into concentration values (pg/ml).
Animals: male C57BL/6J mice, 9 weeks old (Janvier, Le Genest St Isle, France).
Test compounds were dosed orally (p.o.) at 100 mg/kg (vehicle: 0.5% CMC, application volume 10 ml/kg).
Anti-CD3 antibody (BD Bioscience, catalogue number 553057): 200 μl of a 10 μg/ml solution in PBS were applied i.p. (2 μg per mouse).

IC50 [1] [nM] | SMILES | also measured
42 | CCNC(=O)Nc1ccc(-c2nc3c(c(N4CCOC[C@@H]4C)n2)CN(C(=O)OC)C3)cc1 [Example 89, (S)-methyl 2-(4-(3-ethylureido)phenyl)-4-(3-methylmorpholino)-5H-pyrrolo[3,4-d]pyrimidine-6(7H)-carboxylate] | –
22 | CCNC(=O)Nc1ccc(-c2nc3c(c(N4CCOC[C@@H]4C)n2)CCN(C(=O)OC)C3)cc1 [Example 81, (S)-methyl 2-(4-(3-ethylureido)phenyl)-4-(3-methylmorpholino)-5,6-dihydropyrido[3,4-d]pyrimidine-7(8H)-carboxylate] | –
17 | C[C@H]1COCCN1c1nc(-c2ccc(NC(=O)NC3CC3)cc2)nc2c1CCN(C(=O)C(C)(C)C)C2 [Example 64, (S)-1-cyclopropyl-3-(4-(4-(3-methylmorpholino)-7-pivaloyl-5,6,7,8-tetrahydropyrido[3,4-d]pyrimidin-2-yl)phenyl)urea] | –
28 | CCNC(=O)Nc1ccc(-c2nc3c(c(N4CCOC[C@@H]4C)n2)CCN(C(=O)OCC)C3)cc1 [Example 77, (S)-ethyl 2-(4-(3-ethylureido)phenyl)-4-(3-methylmorpholino)-5,6-dihydropyrido[3,4-d]pyrimidine-7(8H)-carboxylate] | –
53 | CCNC(=O)Nc1ccc(-c2nc3c(c(N4CCOC[C@@H]4C)n2)CN(C(=O)OCC)C3)c(F)c1 [Example 113, (S)-ethyl-2-(4-(3-ethylureido)-2-fluorophenyl)-4-(3-methylmorpholino)-5H-pyrrolo[3,4-d]pyrimidine-6(7H)-carboxylate] | –
531 | CCNC(=O)Nc1ccc(-c2nc3c(c(N4CCOC[C@@H]4C)n2)CN(C)C3)cc1F [Example 85, (S)-1-ethyl-3-(2-fluoro-4-(6-methyl-4-(3-methylmorpholino)-6,7-dihydro-5H-pyrrolo[3,4-d]pyrimidin-2-yl)phenyl)urea] | –
21 | C[C@H]1COCCN1c1nc(-c2ccc(NC(=O)NC3CC3)cc2)nc2c1CCN(C(=O)C1CC1)C2 [Example 60, (S)-1-(4-(7-(cyclopropanecarbonyl)-4-(3-methylmorpholino)-5,6,7,8-tetrahydropyrido[3,4-d]pyrimidin-2-yl)phenyl)-3-cyclopropylurea] | –
88 | CCNC(=O)Nc1ccc(-c2nc3c(c(N4CCOC[C@@H]4C)n2)CN(C(=O)OCC)C3)cc1F [Example 103, (S)-ethyl-2-(4-(3-ethylureido)-3-fluorophenyl)-4-(3-methylmorpholino)-5H-pyrrolo[3,4-d]pyrimidine-6(7H)-carboxylate] | –
91 | CCNC(=O)Nc1ccc(-c2nc3c(c(N4CCOC[C@@H]4C)n2)CCN(C(=O)NCC)C3)cc1 [Example 87, (S)—N-ethyl-2-(4-(3-ethylureido)phenyl)-4-(3-methylmorpholino)-5,6-dihydropyrido[3,4-d]pyrimidine-7(8H)-carboxamide] | –
87 | CCNC(=O)Nc1ccc(-c2nc3c(c(N4CCOC[C@@H]4C)n2)CCN(C(=O)Cc2cccnc2)C3)cc1 [Example 91, (S)-1-ethyl-3-(4-(4-(3-methylmorpholino)-7-(2-(pyridin-3-yl)acetyl)-5,6,7,8-tetrahydropyrido[3,4-d]pyrimidin-2-yl)phenyl)urea] | –
118 | CCNC(=O)Nc1ccc(-c2nc3c(c(N4CCOC[C@@H]4C)n2)CCN(C)C3)c(F)c1 [Example 110, (S)-1-ethyl-3-(3-fluoro-4-(7-methyl-4-(3-methylmorpholino)-5,6,7,8-tetrahydropyrido[3,4-d]pyrimidin-2-yl)phenyl)urea] | –
54 | CCNC(=O)Nc1ccc(-c2nc3c(c(N4CCOC[C@@H]4C)n2)CN(CC(C)C)C3)cc1 [Example 66, (S)-1-ethyl-3-(4-(6-isobutyl-4-(3-methylmorpholino)-6,7-dihydro-5H-pyrrolo[3,4-d]pyrimidin-2-yl)phenyl)urea] | –
37 | CCNC(=O)Nc1ccc(-c2nc3c(c(N4CCOC[C@@H]4C)n2)CN(C(=O)OCC)C3)cc1 [Example 90, (S)-ethyl 2-(4-(3-ethylureido)phenyl)-4-(3-methylmorpholino)-5H-pyrrolo[3,4-d]pyrimidine-6(7H)-carboxylate] | –
43 | COC(=O)N1Cc2nc(-c3ccc(NC(=O)NC4CC4)cc3)nc(N3CCOC[C@@H]3C)c2C1 [Example 86, (S)-methyl 2-(4-(3-cyclopropylureido)phenyl)-4-(3-methylmorpholino)-5H-pyrrolo[3,4-d]pyrimidine-6(7H)-carboxylate] | –
17 | CCNC(=O)Nc1ccc(-c2nc3c(c(N4CCOC[C@@H]4C)n2)CCN(C(=O)C(C)(C)C)C3)cc1 [Example 58, (S)-1-ethyl-3-(4-(4-(3-methylmorpholino)-7-pivaloyl-5,6,7,8-tetrahydropyrido[3,4-d]pyrimidin-2-yl)phenyl)urea] | –
20 | CC(C)C(=O)N1CCc2c(nc(-c3ccc(NC(=O)NC4CC4)cc3)nc2N2CCOC[C@@H]2C)C1 [Example 61, (S)-1-cyclopropyl-3-(4-(7-isobutyryl-4-(3-methylmorpholino)-5,6,7,8-tetrahydropyrido[3,4-d]pyrimidin-2-yl)phenyl)urea] | –
57 | CCNC(=O)N1CCc2c(nc(-c3ccc(NC(=O)NC4CC4)cc3)nc2N2CCOC[C@@H]2C)C1 [Example 88, (S)-2-(4-(3-cyclopropylureido)phenyl)-N-ethyl-4-(3-methylmorpholino)-5,6-dihydropyrido[3,4-d]pyrimidine-7(8H)-carboxamide] | –
70 | COC(=O)N1CCc2c(nc(-c3ccc(NC(=O)NC4CC4)cc3)nc2N2CCOC[C@@H]2C)C1 [Example 83, (S)-methyl 2-(4-(3-cyclopropylureido)phenyl)-4-(3-methylmorpholino)-5,6-dihydropyrido[3,4-d]pyrimidine-7(8H)-carboxylate] | –
49 | CCOC(=O)N1Cc2nc(-c3ccc(NC(=O)NC4CC4)cc3F)nc(N3CCOC[C@@H]3C)c2C1 [Example 131, (S)-ethyl 2-(4-(3-cyclopropylureido)-2-fluorophenyl)-4-(3-methylmorpholino)-5H-pyrrolo[3,4-d]pyrimidine-6(7H)-carboxylate] | IFNγ plasma levels [2]: reduction; IL-2 plasma levels [2]: reduction; IL-4 plasma levels [2]: reduction; TNFα plasma levels [2]: reduction
61 | C[C@H]1COCCN1c1nc(-c2ccc(NC(=O)Nc3cccc(O)n3)cc2)nc2c1CN(C)C2 [Example 80, (S)-1-(6-hydroxypyridin-2-yl)-3-(4-(6-methyl-4-(3-methylmorpholino)-6,7-dihydro-5H-pyrrolo[3,4-d]pyrimidin-2-yl)phenyl)urea] | –
21 | CCOC(=O)N1CCc2c(nc(-c3ccc(NC(=O)NC4CC4)cc3)nc2N2CCOC[C@@H]2C)C1 [Example 78, (S)-ethyl 2-(4-(3-cyclopropylureido)phenyl)-4-(3-methylmorpholino)-5,6-dihydropyrido[3,4-d]pyrimidine-7(8H)-carboxylate] | –

— patent US8785457B2 (Cellzome Limited, priority 2009, dated 2014)
